The source of these data is US20250228861A1, “Cancer Treatments Using MTA-Cooperative PRMT5 Inhibitors” (AMGEN INC., priority 2022, published 2025).

Experiment [1] concerns PSN1 cells. The experiment is described as follows: Combination with gemcitabine, CellTiter-Glo viability, Fa and CalcuSyn CI. Conditions: 6 days.
Experimental: (§2) Cell viability was measured by the CellTiter-Glo Luminescence assay. Raw luminescent values were converted to fraction affected (Fa) with the following equation:
(§3) Synergy analysis was performed using the CalcuSyn software to determine CI scores based on the drug concentrations used and corresponding Fa values.
For experiment [2], the system named is HCT116 MTAP-WT cells. The experiment is described as follows: Global SDMA levels (in-cell imaging) in MTAP-WT cells. Format: cell-based. To be noted: Homo sapiens, HCT-116, 96 h, 4 days. As to the method:
(§1) FIG. 1. […] Viability was measured by CellTiter-Glo and cooperativity was determined as follows: Cooperativity=WT IC50/MTAP-null IC50.
HCT116 WT and MTAP-null global SDMA levels were assessed by an in-cell imaging assay after 4 days treatment.

The test system of experiment [3] is HCT116 MTAP-WT cells. The experiment is described as follows: 6-day CellTiter-Glo viability in MTAP-WT cells. Format: cell-based. Conditions: Homo sapiens, HCT-116, 144 h, 6 days, read-out: proliferation, IC50. On the procedure:
as §1
Plated cells were at optimized cell density in 96-well black walled, clear bottom tissue culture plates in 90 μL of growth media. Cells were incubated at room temperature for 30 minutes prior to placing in incubator at 37° C. and 5% CO2 overnight. […] Secondary compound dilutions (1:100) in media were done in the 96-well V-Bottom plate by adding 3 μL of the primary dilution to 297 μL of culture media. Finally, 10 μL from the secondary compound dilutions were added to cells in triplicate (1:10 dilution; final DMSO concentration 0.1%). Once addition was complete, plates were incubated at 37° C. and 5% CO2. […] Percent of Control (POC) values were calculated as follows: POC=100*(Treatment/Vehicle). Mean POC values were then calculated for each treatment condition and used to fit dose response curves applying a four parameter logistic curve in GraphPad Prism 7.
(ATP-based viability assays read luminescence as a measure of living cells.)

The test system of experiment [4] is HCT116 MTAP-null tumor xenografts. To be noted: mouse, in vivo, po. On the procedure: FIG. 2: ELISA analysis of HCT116 MTAP WT and HCT116 MTAP-null contralateral tumor cells. […] Percentage of inhibition reported relative to matched vehicle. Data represent mean±SD, n=3 for each group.
Female Athymic Nude mice were implanted with HCT116 MTAP-null or MTAP WT tumors. […] Data represents group means±SEM, n=10. […] STATS: P values were determined by Linear Mixed-Effects Model with a Dunnett's comparison to control.

The test system of experiment [5] is endogenous MTAP-null patient derived xenograft models. The experiment is described as follows: MTAP-null patient derived xenograft (PDX) models, tumor growth inhibition. Format: in vivo, mice. The text has this:
Female NOD/SCID mice were implanted with PA5415 (pancreatic tumors) or ES11082 (esophageal tumors). […] Data represent group means±SEM, n=10. for each group.
For each model, 6 Female NOD/SCID mice were implanted with PDX. Mean tumor volumes for each grouping were between 100-200 mm^3.
6 Female NOD/SCID mice were implanted with patient-derived tumor xenograft (PDX) models of pancreatic ovarian, esophageal, melanoma, lung, brain, mixed mullerian or gallbladder cancer. Mean tumor volumes for each grouping were between 100-200 mm^3.
For orientation: A xenograft is tissue or cells of one species grown in another, often human tumour cells in immunodeficient mice.

Experiment [6] relates to BXPC-3 endogenous MTAP-null xenografts. The experiment is described as follows: BxPC-3 xenografts. Format: in vivo. Conditions: BxPC-3 xenografts in SCID mice; p.o. once a day. From the text:
FIG. 10. […] Data represent group means±SEM, n=10. […] Data represent mean±SD, n=5 for each group.

Experiment [7] has as its system endogenous wild-type or MTAP-null cell lines. The experiment is described as follows: 6-day viability in expanded panel of tumor cell lines. Format: cell-based. To be noted: endogenous MTAP-null vs wild-type cell lines; 6-day CellTiter-Glo. As to the method: FIG. 9. […] Top concentration of tested was 10 μM (1 uM for DLBCL lines) with a total of nine 1:3 serial dilution steps and DMSO-only control. […] (mean±SD, n=3).

The test system of experiment [8] is DOHH-2 endogenous MTAP-null xenografts. Conditions: mouse, in vivo, po. As to the method: FIG. 10. […] Female SCID mice were implanted with DOHH-2 or BxPC-3 tumors. […] Data represent group means±SEM, n=10. Terminal DOHH-2 or BxPC-3 tumors were collected for SDMA ELISA analysis. Data represent mean±SD, n=5 for each group. STATS: P values were determined by Linear Mixed-Effects Model with a Dunnett's comparison to control; **p<0.01, ****p<0.0001.
FIG. 11. […] (A-D.) Female SCID mice were implanted with DOHH-2 tumors. […] Mice were dosed orally (p.o.) once a day for ten days. Data represent group means±SEM, n=10. A.) Terminal DOHH-2 tumor volumes. […] C.) Disaggregated tumors were stained for γH2AX, MFI (mean florescent intensity). D.) Cardiac bleeds were performed and analyzed on ADVIA.

In experiment [9] the test system is PSN1 cells. Briefly: Combination with carboplatin, CellTiter-Glo viability, Fa and CalcuSyn CI. Conditions: Compound B 0.0384 μM fixed + Carboplatin 3 μM, 6 days.
Experimental: as §2, §3
Another experiment deals with MTAP-null cells. Briefly: In-vitro mechanism of action studies (DNA damage, cell cycle). Format: cell-based. To be noted: data not shown.
In another experiment the test system is MIAPACA2T2 cells. Conditions: 6 days.
Experiment [10] has as its system PSN1 cells. Conditions: 6 days.
Experimental: as §2, §3
[11] abbreviates: Compound B 0.022375 μM fixed + Gemcitabine 0.001461 μM.
Where [12] appears, read: Compound B 0.022375 μM fixed + Gemcitabine 0.005612 μM.
The mark [13] stands for this setting: Compound G 0.83102 μM fixed + 5-FU 0.664052 μM.
Where [14] appears, read: Compound G 0.83102 μM fixed + 5-FU 0.929672 μM.
[15] abbreviates: Compound G 0.83102 μM fixed + 5-FU 1.30154 μM.
Where [16] appears, read: Compound G 0.83102 μM fixed + 5-FU 1.82216 μM.
The mark [17] stands for this setting: Compound G 0.83102 μM fixed + 5-FU 2.55102 μM.
The mark [18] stands for this setting: Compound G 0.83102 μM fixed + 5-FU 3.57143 μM.
[19] abbreviates: Compound G 0.83102 μM fixed + 5-FU 5 μM.
Setting [20] is: Compound G 0.0213 μM fixed + 5-FU 0.357628 μM.
[21] abbreviates: Compound G 0.0213 μM fixed + 5-FU 0.572205 μM.
Setting [22] is: Compound G 0.0213 μM fixed + 5-FU 0.915527 μM.
The mark [23] stands for this setting: Compound G 0.0213 μM fixed + 5-FU 1.46484 μM.
Where [24] appears, read: Compound G 0.0213 μM fixed + 5-FU 2.34375 μM.
[25] abbreviates: Compound G 0.0213 μM fixed + 5-FU 3.75 μM.
Where [26] appears, read: Compound G 0.0213 μM fixed + 5-FU 6 μM.

Entries after “also recorded” stand apart in the source; their conditions may differ. Where two headings read alike, the source gives them in different places.

Experimental for MIAPACA2T2 cells: as §2, §3

`Cc1cc2cc(C(=O)N(Cc3ccc(C(F)(F)F)cn3)[C@@H](C)c3ncccn3)ccc2nc1N` [Compound B]: the “Combination Fa” value was 0.594 in the experiment with PSN1 cells [1] (setting [11]), 0.985 in the experiment on PSN1 cells [1] (setting [12]), 0.986 in the experiment on PSN1 cells [1] (Compound B 0.022375 μM fixed + Gemcitabine 0.007857 μM) and 0.989 with PSN1 cells [1] (Compound B 0.022375 μM fixed + Gemcitabine 0.011 μM). The “Computed CI value” is listed as 2.081 in the experiment on PSN1 cells [1] (setting [11]), 1.177 in the experiment with PSN1 cells [1] (Compound B 0.022375 μM fixed + Gemcitabine 0.002045 μM), 0.8 in the experiment on PSN1 cells [1] (setting [12]) and 0.547 in the experiment with PSN1 cells [9]. In addition, the results for the IC50 in the experiment with HCT116 MTAP-WT cells [2] and with HCT116 MTAP-WT cells [3] were 50 nM and 630 nM, respectively. In experiment [4], the “SDMA and tumor growth in xenografts” value is “selectively inhibits SDMA and tumor growth”. Besides, the “tumor growth inhibition (TGI)” value in experiment [5] (100 mg/kg orally once daily, majority of PDX models harboring deletion of the MTAP gene, panel of over twenty PDX models) was “greater than 50%”. Further, the anti-tumor growth inhibition entry in [5] (PA5415 pancreatic and ES11082 esophageal PDX, p.o. once a day) is “significant anti-tumor growth inhibition”. Also, the anti-tumor activity entry in experiment [6] and in experiment [8] was “significant anti-tumor activity” each time. The “proliferation / viability in expanded panel of tumor cell lines” value in experiment [7] is “inhibited the proliferation of most MTAP-null cells, with minimal effects on MTAP-WT cells; also recorded: preferential activity in endogenous MTAP-null tumor cell lines; also recorded: preferentially inhibits cell viability in endogenous MTAP-null vs. wildtype”. Moreover, the “DNA damage response in tumors (γH2AX)” value in [8] (100 mg/kg) is “increase in the DNA damage response”. Further, the “cell cycle in tumors (BrdU/DAPI flow cytometry)” value in experiment [8] (100 mg/kg) was “cell cycle arrest”. Moreover, in the experiment on MTAP-null cells, the “DNA damage (phosphorylation of H2AX)” value is “induced DNA damage, as illustrated by increased phosphorylation of H2AX”. Moreover, the cell cycle result in the experiment with MTAP-null cells is reported as “an arrest in the G2/M phase of the cell cycle”.
For the compound `Nc1nc2cnc(C(=O)N3CCOC[C@@H]3c3ccc(C(F)(F)F)cc3)cc2c2c1COC2` [Compound G], the “Combination Fa” value in the experiment with MIAPACA2T2 cells (setting [13]) came out at 0.7114; in the experiment on MIAPACA2T2 cells (setting [14]) it was 0.7511; with MIAPACA2T2 cells (setting [15]) it was 0.8099; in the experiment with MIAPACA2T2 cells (setting [16]) it was 0.85; in the experiment on MIAPACA2T2 cells (setting [17]), 0.8941; with MIAPACA2T2 cells (setting [18]), 0.9193. The “Combination Fa” value in the experiment with MIAPACA2T2 cells (setting [19]) was found to be 0.9246; with PSN1 cells [10] (setting [20]), 0.3; in the experiment on PSN1 cells [10] (setting [21]) it was 0.416; with PSN1 cells [10] (setting [22]) it was 0.669; in the experiment with PSN1 cells [10] (setting [23]), 0.74; in the experiment with PSN1 cells [10] (setting [24]), 0.789. The “Combination Fa” value in the experiment on PSN1 cells [10] (setting [25]) was determined as 0.836; in the experiment on PSN1 cells [10] (setting [26]), 0.869. The “Computed CI value” in the experiment with MIAPACA2T2 cells (setting [13]) is listed as 0.445; in the experiment with MIAPACA2T2 cells (setting [14]), 0.477; in the experiment with MIAPACA2T2 cells (setting [15]) it was 0.482; in the experiment on MIAPACA2T2 cells (setting [16]), 0.529; in the experiment on MIAPACA2T2 cells (setting [17]), 0.555; with MIAPACA2T2 cells (setting [18]) it was 0.632. Also, the “Computed CI value” in the experiment on MIAPACA2T2 cells (setting [19]) was determined as 0.834; with PSN1 cells [10] (setting [20]), 1.422; in the experiment on PSN1 cells [10] (setting [21]), 1.404; in the experiment with PSN1 cells [10] (setting [22]), 1.055; in the experiment on PSN1 cells [10] (setting [23]), 1.282; with PSN1 cells [10] (setting [24]), 1.668. The “Computed CI value” stood at 2.158 in the experiment on PSN1 cells [10] (setting [25]) and 2.903 in the experiment with PSN1 cells [10] (setting [26]).
